Consider 11 compounds from US20240043435A1, “TYK-2 INHIBITOR” (BEIGENE, LTD., priority 2020, published 2024).

Structures are written as SMILES. Like-named read-outs stand apart in the source and are kept apart here.

In series [1] the test system is JAK2, TYK2/p-STAT4 (Tyr693) activated by IL-12 in NK-92 cell line. The series can be described thus: IL-12-JAK2, TYK2/p-STAT4 (Tyr693) inhibition IC50 cellular assay. The following applies: for IC50: NK92, Cellular assay, read-out: pSTAT4/IL-12 IC50; for Selectivity fold (TYK2/JAK2): Cellular assay, pSTAT5/GM-CSF IC50 vs pSTAT4/IL-12 IC50. It counts as cell-based. The method, boiled down: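 p-STAT4 (Tyr693) in lysates was measured by AlphaLISA SureFire Ultra after a 30 min IL-12 challenge (40 ng/ml final) at 37° C. Overnight-starved, IL-2-free NK-92 cells had been pretreated 1 h with compound at 10000 to 0.61 nM (4-fold, 8 points). IC50 values came from four-parameter logistic fitting.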

A further series concerns pSTAT5/GM-CSF. The series can be described thus: pSTAT5/GM-CSF cellular assay (JAK2 selectivity). The class given is cell-based.
The nature of series [2]: Mouse PK study, oral administration. The class given is in vivo, male CD-1 mouse. As to the method:
Biological Assay: Mouse PK Study
The pharmacokinetics of compounds were evaluated in male CD-1 mouse via Oral Administration (dose of 10 mg/kg). For oral administration study, test compounds were added in 0.5% MC in water and administrated to mice at 10 mg/kg by gavage. Blood was collected into EDTA-K2 anticoagulant tube at 15, and 30 min and 1, 2, 4, 8 and 24 h after administration. Approximately 30 μL blood was collected at each time point. And then the blood was centrifuged at 2000 g for 5 min at 4° C. using a centrifuge to obtain the plasma. The plasma sample was transferred into a tube and stored in a freezer at approximately −70° C. until the determination of concentration by LC-MS/MS. Pharmacokinetic parameters were estimated by using WinNonlin software (version 8.1, Pharsight Corporation, CA, USA) with non-compartmental method. The following pharmacokinetic parameters were calculated, whenever possible from the plasma concentration-time data: Tmax, Cmax, AUClast, AUCinf, T1/2 for PO administration. All animals were fasted before experiment.

The target of series [3] is T1, TYK2-JH2 (aa 575-869, in-house) protein (Homo sapiens, UniProt P29597).
T1 construct: TYK2-JH2 (aa 575-869, in-house) protein; made in house
The series can be described thus: TYK2-JH2 biochemical assay (HTRF probe displacement). The class given is binding. The following applies: for Selectivity fold (TYK2/JAK1): JAK1-JH2 IC50 vs TYK2-JH2 IC50. An outline of the steps: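 HTRF probe-displacement format: compound dilutions (10 points, 5-fold, from 500 uM in DMSO at 500×) were combined with 0.2 nM TYK2-JH2 protein for 0.5 h at room temperature in HEPES pH 7.5 buffer with MgCl2, BSA, DTT and Brij-35. Percent inhibition came from the 615/665 nm fluorescence ratio, fitted to a four-parameter logistic for IC50.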
For orientation: Time-resolved FRET reads energy transfer from a long-lived donor to a nearby acceptor.

Series [4] deals with T2, JAK1-JH2 protein (aa 561-860, in-house) (Homo sapiens, UniProt P23458).
T2 construct: JAK1-JH2 protein (aa 561-860, in-house); made in house
The series can be described thus: JAK1-JH2 biochemical assay (HTRF probe displacement). It counts as binding. As to the method: Assay B: JAK1-JH2 Biochemical Assay
Compounds disclosed herein were tested for blocking of JAK1-JH2 protein (aa 561-860, in-house) with its probe in an assay based on Homogeneous Time Resolved Fluorescence. Compound dilution is done according to the following protocol: (1) Prepare 500× compounds solution in DMSO from 500 uM by 5-fold dilution, total 10 doses were included; (2) Prepare 10× compounds solution in an assay buffer containing 20 mM HEPES, pH 7.5, 10 mM MgCl2, 0.005% BSA, 2 mM DTT, 0.015% Brij-35 by transferring 1 μl serial 500× stock solution into 49 μl assay buffer. 4 μL of 1.17 nM recombinant JAK1-JH2 protein was pre-incubated with 1 μl of 10× serial dilution of compounds at room temperature for 0.5 hour. […] The HTRF signals (ex337 nm, em620 nm/665 nm) were read on BMG PHERAstar FS instrument. The inhibition percentage of JAK1 interaction with its probe in presence of increasing concentrations of compounds was calculated based on the ratio of fluorescence at 615 nm to that at 665 nm. The IC50 for each compound was derived from fitting the data to the four-parameter logistic equation by Dotmatics.

Series [5] has as its target T2, JAK1-JH2 protein (aa 561-860, in-house). Described as above. The following applies: in-house probe of the JAK1-JH2 assay. The class given is binding.
Setting [6] is: Po dosing (10 mg/kg), male CD-1 mouse.
Setting [7] is: male, CD-1, plasma, Po 10 mg/kg mouse.
Setting [8] is: plasma, Po dosing (10 mg/kg), male CD-1 mouse, read-out: Cmax.
Setting [9] is: Biochemical assay, read-out: TYK2-JH2 IC50.
The mark [10] stands for this setting: read-out: Tyk2 JH2 domain bio-chemical potency.

T2 sequence (P23458 561-860): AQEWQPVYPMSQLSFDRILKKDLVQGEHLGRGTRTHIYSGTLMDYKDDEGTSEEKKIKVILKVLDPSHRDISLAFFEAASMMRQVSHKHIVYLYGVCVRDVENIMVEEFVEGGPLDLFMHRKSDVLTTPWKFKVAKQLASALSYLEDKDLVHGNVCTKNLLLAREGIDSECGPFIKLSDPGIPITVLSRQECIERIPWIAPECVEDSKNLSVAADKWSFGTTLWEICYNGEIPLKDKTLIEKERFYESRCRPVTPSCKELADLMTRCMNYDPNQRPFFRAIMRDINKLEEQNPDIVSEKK
T1 sequence (P29597 575-869): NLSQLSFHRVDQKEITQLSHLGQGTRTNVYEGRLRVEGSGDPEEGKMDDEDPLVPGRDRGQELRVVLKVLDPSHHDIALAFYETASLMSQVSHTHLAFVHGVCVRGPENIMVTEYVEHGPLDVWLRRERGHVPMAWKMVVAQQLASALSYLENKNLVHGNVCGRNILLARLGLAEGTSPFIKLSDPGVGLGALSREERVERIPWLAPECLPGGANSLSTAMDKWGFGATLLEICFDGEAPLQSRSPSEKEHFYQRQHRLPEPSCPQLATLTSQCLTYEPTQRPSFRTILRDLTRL

Usually AUC stands for the area under the concentration-time curve, a measure of exposure. A high value points to more exposure. One may read the Cmax as the peak of the concentration-time curve. As to `COc1cc(Nc2cc(NC(C)=O)ncc2-c2ccc3c(n2)OCC(C)(C)O3)nc(S(C)(=O)=O)c1` [Example Q25, N-(5-(2,2-dimethyl-2,3-dihydro-[1,4]dioxino[2,3-b]pyridin-6-yl)-4-((4-methoxy-6-(methylsulfonyl)pyridin-2-yl)amino)pyridin-2-yl)acetamide], the IC50 in series [1] was found to be 0.53 nM; in the series with pSTAT5/GM-CSF it was 1820 nM; in series [3] (setting [9]) it was 0.026 nM. In the series with pSTAT5/GM-CSF (pSTAT5/GM-CSF IC50 over pSTAT4/IL-12 IC50), the “Selectivity fold (TYK2/JAK2)” value worked out at 3437 fold. Further, the “AUC and Cmax fold higher than those of Example F22 and H11” value in series [2] (Po 10 mg/kg mouse) is reported as “at least 3 fold”. For the same compound, the AUClast in series [2] (setting [6]) is 16245 ng·h/mL. Besides, in series [2] (setting [6]), the T1/2 amounted to 3.01 h. In addition, the AUC in series [2] (setting [7]) was determined as 16200 ng·h/mL. Besides, the Cmax in series [2] (setting [8]) was found to be 2820 ng/mL.
Take `CC(=O)Nc1cc(Nc2cccc(S(C)(=O)=O)n2)c(-c2ccccn2)cn1` [Example B5, N-(4′-((6-(methylsulfonyl)pyridin-2-yl)amino)-[2,3′-bipyridin]-6′-yl)acetamide]: the IC50 in series [4] is 0.31 nM; in series [1], 0.243 nM; in the series with pSTAT5/GM-CSF it was greater than 10000 nM; in series [3] (setting [10]) it was 0.016 nM. Also, the “fold more potent than Example B1 in cellular assay” value in series [1] came to 40 fold. Also, the “Selectivity fold (TYK2/JAK2)” value in series [1] was greater than 41152 fold. For the same compound, the “fold more potent than Example B1 in bio-chemical assay” value in series [3] is recorded as 2 fold. Further, in series [3] (Biochemical assay), the “Selectivity fold (TYK2/JAK1)” value came to 19 fold.
As to `CC(=O)Nc1cc(Nc2cccc(S(C)(=O)=O)c2)c(-c2ccc(C(C)(C)O)cn2)cn1` [Example H1, N-(5-(2-hydroxypropan-2-yl)-4′-((3-(methylsulfonyl)phenyl)amino)-[2,3′-bipyridin]-6′-yl)acetamide], the IC50 in series [4] was 1.4 nM; in series [1] it was 2.6 nM; with pSTAT5/GM-CSF it was greater than 10000 nM; in series [3] (setting [9]) it was 0.016 nM. In addition, the “Selectivity fold (TYK2/JAK2)” value in series [1] was greater than 3846 fold. The “Selectivity fold (TYK2/JAK1)” value in series [3] (Biochemical assay) is reported as 87.5 fold.
For `CC(=O)Nc1cc(Nc2cccc(S(C)(=O)=O)c2)c(-c2ccccn2)cn1` [Example B1, N-(4′-((3-(methylsulfonyl)phenyl)amino)-[2,3′-bipyridin]-6′-yl)acetamide], the IC50 is 7.4 nM in series [4], 9.89 nM in series [1], greater than 10000 nM in the series with pSTAT5/GM-CSF and 0.038 nM in series [3] (setting [10]). Besides, the “Selectivity fold (TYK2/JAK2)” value in series [1] is recorded as greater than 1011 fold. For the same compound, in series [3] (Biochemical assay), the “Selectivity fold (TYK2/JAK1)” value was 194 fold.
Take `COc1cc(Nc2cc(NC(C)=O)ncc2-c2ccc(F)cn2)nc(S(C)(=O)=O)c1` [Example F22, N-(5-fluoro-4′-((4-methoxy-6-(methylsulfonyl)pyridin-2-yl)amino)-[2,3′-bipyridin]-6′-yl)acetamide]: the “Selectivity fold (TYK2/JAK2)” value in series [1] is greater than 5494 fold. The results for the IC50 (in series [1]; with pSTAT5/GM-CSF; in series [3] (setting [9])) were 1.82 nM, greater than 10000 nM and 0.026 nM, respectively. The same compound displayed an AUClast in series [2] (setting [6]) of 2098 ng·h/mL. The compound further yielded a T1/2 in series [2] (setting [6]) of 1.48 h. In addition, in series [2] (setting [7]), the AUC stood at 2100 ng·h/mL. In addition, in series [2] (setting [8]), the peak concentration (Cmax) stood at 911 ng/mL.
As usually defined, the Kd is the concentration at which binding is half-saturated. Low values mean tighter binding, high ones weaker binding. Compound `CN(C(=O)CN1CCN(CCNC(=O)CCOCCOCCOCCOCCOCCOCCNC(=O)CCCC[C@@H]2SC[C@@H]3NC(=O)N[C@@H]32)CC1)c1ccc(N/C(=C2\C(=O)Nc3ccccc32)c2ccccc2)cc1` [Probe 2, N-(2-(4-(2-(methyl(4-((((Z)-2-oxoindolin-3-ylidene)(phenyl)methyl)amino)phenyl)amino)-2-oxoethyl)piperazin-1-yl)ethyl)-1-(5-((3aS,4S,6aR)-2-oxohexahydro-1H-thieno[3,4-d]imidazol-4-yl)pentanamido)-3,6,9,12,15,18-hexaoxahenicosan-21-amide] gave a Kd in series [5] of 2.9 nM. In other words, the single-digit nanomolar range.
In the case of `CC(=O)Nc1cc(Nc2cccc(S(C)(=O)=O)c2)c(-c2ccc(N3CCOCC3=O)cn2)cn1` [Example G1, N-(4′-((3-(methylsulfonyl)phenyl)amino)-5-(3-oxomorpholino)-[2,3′-bipyridin]-6′-yl)acetamide], the IC50 in series [4] was 4.9 nM; in series [1] it was 14.4 nM; in the series with pSTAT5/GM-CSF, greater than 10000 nM; in series [3] (setting [9]), 0.026 nM. In addition, in series [4] (JAK1-JH2 vs TYK2-JH2), the “Selectivity fold (TYK2/JAK1)” value was determined as 188 fold. Moreover, the “Selectivity fold (TYK2/JAK2)” value in the series on pSTAT5/GM-CSF (pSTAT5/GM-CSF vs pSTAT4/IL-12) is greater than 694 fold.
With `CC(=O)Nc1cc(Nc2cccc(S(C)(=O)=O)c2)c(-c2cc(C)nc(C)n2)cn1` [Example A6, N-(5-(2,6-dimethylpyrimidin-4-yl)-4-((3-(methylsulfonyl)phenyl)amino)pyridin-2-yl)acetamide], the IC50 in series [4] was 18 nM; in series [1], 51 nM; with pSTAT5/GM-CSF, greater than 10000 nM; in series [3] (setting [9]), 0.14 nM. Also, the “Selectivity fold (TYK2/JAK2)” value in series [1] is greater than 196 fold. Moreover, the “Selectivity fold (TYK2/JAK1)” value in series [3] (Biochemical assay) was found to be 128 fold.
For `CC(=O)Nc1cc(Nc2cccc(S(C)(=O)=O)c2)c(-c2cccnn2)cn1` [Example A1, N-(4-((3-(methylsulfonyl)phenyl)amino)-5-(pyridazin-3-yl)pyridin-2-yl)acetamide], the IC50 was 15 nM in series [4], 79.5 nM in series [1], greater than 10000 nM with pSTAT5/GM-CSF and 0.052 nM in series [3] (setting [9]). Moreover, the “Selectivity fold (TYK2/JAK2)” value in series [1] is recorded as greater than 125 fold. Moreover, the “Selectivity fold (TYK2/JAK1)” value in series [3] (Biochemical assay) is given as 288 fold.
As for `COc1cc(Nc2cc(NC(C)=O)ncc2-c2ccc(C(C)(C)O)cn2)nc(S(C)(=O)=O)c1` [Example H11, N-(5-(2-hydroxypropan-2-yl)-4′-((4-methoxy-6-(methylsulfonyl)pyridin-2-yl)amino)-[2,3′-bipyridin]-6′-yl)acetamide], in series [1], the “Selectivity fold (TYK2/JAK2)” value is given as greater than 10000 fold and the IC50 was found to be 1 nM. Further, the IC50 in the series on pSTAT5/GM-CSF was greater than 10000 nM. Further, in series [2] (setting [6]), the AUClast turned out to be 19.3 ng·h/mL, the Cmax turned out to be 8.73 ng/mL and the T1/2 was found to be 2.07 h. In addition, the AUC in series [2] (setting [7]) worked out at 19.4 ng·h/mL. Besides, in series [2] (male, CD-1, plasma, Po 10 mg/kg mouse, read-out: Cmax), the Cmax stood at 7 ng/mL. Further, the IC50 in series [3] (setting [9]) was found to be 0.027 nM.
As to `COc1cccc(Nc2cc(NC(C)=O)ncc2-c2ccccn2)c1` [Example B13, N-(4′-((3-methoxyphenyl)amino)-[2,3′-bipyridin]-6′-yl)acetamide], the IC50 is 18 nM in series [4], 183 nM in series [1], greater than 10000 nM with pSTAT5/GM-CSF and 0.43 nM in series [3] (setting [9]). Besides, in series [1], the “Selectivity fold (TYK2/JAK2)” value is given as greater than 54 fold. Also, the “Selectivity fold (TYK2/JAK1)” value in series [3] (Biochemical assay) is 42 fold.
